These results are taken from US8044022B2, “Hyaluronic acid binding peptides enhance host defense against pathogenic bacteria” (priority 2005, dated 2011).

For the assay, the system named is GAS. As to the kind of experiment: Bacterial translocation through polarized keratinocyte cultures (Transwell). It counts as cell-based, Group A Streptococcus. The conditions noted are these: two hours after addition of GAS. On the procedure:
Cell cultures: For the preparation of in vitro keratinocyte cultures, human primary OKP7 cells were derived from the oropharynx. Keratinocytes were seeded at 5×10^5 cells per well onto polycarbonate Transwell membrane supports (12 well plates, 3.0 μm pore size; Costar) or tissue culture treated plastic ware and cultured for 5-10 days at 37° C. with 5% humidified CO2 in cSFM medium with daily medium changes. Once confluent, the calcium concentration of the cSFM was increased to 1.2 mM and cells were cultured for 2 more days, before the integrity of the monolayer was assessed by measuring permeability to sodium fluorescein, and in some experiments, by measuring transepithelial electrical resistance.
Infection procedures: Keratinocyte layer cultures in Transwell inserts were inoculated in the upper chamber with GAS, S. equi, S. uberis, and P. multocida at a multiplicity of infection (MOI) of 1 bacterium per keratinocyte in the presence or absence of HABP01 or SCRM. Infected cultures were incubated at 37° C. with 5% CO2 for the desired time. In translocation experiments, Transwell inserts containing the keratinocytes were moved to new wells containing fresh medium every 2 hours to prevent overgrowth of bacteria that had translocated through the keratinocytes layer to the lower chamber. Bacterial translocation was quantified by culturing medium from the lower chamber at 2-hour intervals.
Bacterial translocation studies were performed to assess the impact of HABP01 on bacterial paracellular translocation through polarized keratinocyte cultures.
Incubation of GAS in the presence of HABP33, HABP35 and HABP42, also delayed GAS translocation. At two hours after the addition of GAS to the keratinocytes, approximately 530 CFU of GAS were detected in the lower level in cultures treated with PBS or SCRM peptide.

As to “HKSVSRHTSMRHSTM [SCRM, reference compound]”, the “GAS detected in the lower level” value is given as “approximately 530 CFU”.
